# From BindingDB's records for doi:10.7270/Q2K072NW (Sanford-Burnham Center for Chemical Genomics, 2008)
# Target: T1, Bcl-2-related protein A1 (Mus musculus, UniProt Q07440)
# T1 sequence (Q07440 whole entry): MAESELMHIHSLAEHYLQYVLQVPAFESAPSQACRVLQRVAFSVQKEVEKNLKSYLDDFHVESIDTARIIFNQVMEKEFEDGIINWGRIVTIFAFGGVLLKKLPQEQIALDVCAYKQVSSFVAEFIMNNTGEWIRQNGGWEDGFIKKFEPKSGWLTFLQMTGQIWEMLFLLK
# Experiment: small-molecule antagonists of Bfl-1/BH3 interaction – biochemical, TR-FRET, mouse Bfl-1, confirmation (AID 621)
row,Structure (SMILES),IC50 [µM]
1,c1ccc(-c2ccc(C3=Nc4ncnn4C(c4ccco4)C3)cc2)cc1 (configuration not stated),> 100
2,O=C1C(=O)N(c2ncccn2)C(c2cccc(Cl)c2)C1C(=O)c1ccco1 (configuration not stated) [2-(3-chlorophenyl)-3-(furan-2-carbonyl)-4-hydroxy-1-pyrimidin-2-yl-2H-pyrrol-5-one],> 100
3,"OCCCc1nc2n(n1)C(c1cccs1)CC(c1ccccc1)=N2 (configuration not stated) [3-(5-phenyl-7-thiophen-2-yl-1,7-dihydro-[1,2,4]triazolo[1,5-a]pyrimidin-2-yl)-1-propanol]",> 100
4,"COCC=Nc1c(Cl)c(O)n(-c2ccc(Cl)c(Cl)c2)c1O [3-chloranyl-1-(3,4-dichlorophenyl)-4-(2-methoxyethylamino)pyrrole-2,5-dione]",4.96
5,"O=C1C(=Nc2ccc(F)cc2)C(Cl)C(=O)N1c1ccc(Cl)c(Cl)c1 (configuration not stated) [3-chloranyl-1-(3,4-dichlorophenyl)-4-[(4-fluorophenyl)amino]pyrrole-2,5-dione]",96.5
6,"Cc1ccc(N=C2C(=O)N(c3ccc(C)cc3)C(=O)C2Cl)cc1 (configuration not stated) [3-chloranyl-1-(4-methylphenyl)-4-[(4-methylphenyl)amino]pyrrole-2,5-dione]",2.54

# More lines, now with the values ahead:
row,IC50 [µM],Structure (SMILES)
1,> 100,"COc1ccc(N2C(=O)C(=Nc3c(C)n(C)n(-c4ccccc4)c3=O)C(Cl)C2=O)cc1 (configuration not stated) [3-chloranyl-4-[(1,5-dimethyl-3-oxidanylidene-2-phenyl-pyrazol-4-yl)amino]-1-(4-methoxyphenyl)pyrrole-2,5-dione]"
2,> 100,"CCCN1CCC2=C(C#N)C(=N)C(C#N)(C#N)C(c3cccc(OC)c3OC)C2C1 (configuration not stated) [6-amino-8-(2,3-dimethoxyphenyl)-2-propyl-1,3,8,8a-tetrahydroisoquinoline-5,7,7-tricarbonitrile]"
3,> 100,"CN1CCC2=C(C#N)C(=N)C(C#N)(C#N)C(c3cccc(Cl)c3Cl)C2C1 (configuration not stated) [6-azanyl-8-[2,3-bis(chloranyl)phenyl]-2-methyl-1,3,8,8a-tetrahydroisoquinoline-5,7,7-tricarbonitrile]"
4,> 100,"CN1CCC2=C(C#N)C(=N)C(C#N)(C#N)[C@H](c3cccc(Cl)c3)C2C1 (stereo partly drawn) [(8S)-6-amino-8-(3-chlorophenyl)-2-methyl-1,3,8,8a-tetrahydroisoquinoline-5,7,7-tricarbonitrile]"
5,73.7,Oc1c(Cl)c(N=Cc2ccccc2)c(O)n1-c1ccc(Cl)c(Cl)c1 [MLS-0067125.0001]
6,> 100,Cc1ccc(C2C3CN(C(C)C)CCC3=C(C#N)C(=N)C2(C#N)C#N)cc1 (configuration not stated) [SMR000034220]
